From the NIST ThermoML archive (doi:10.1016/j.tca.2004.07.014)

How the values were obtained:
[1] = xn = mol fraction of the nth substance listed; conditions: 303.15 K, 101.3 kPa, Liquid; for speed of sound: Linear variable-path acoustic interferometer
[2] = 303.15 K, 101.3 kPa, Liquid; for speed of sound: Linear variable-path acoustic interferometer

CCOC(=O)C(Br)C(=O)OCC [diethyl bromomalonate] + ClC(Cl)(Cl)Cl
[1]
Conditions	mass density [kg/m3]	speed of sound [m/s]	viscosity [mPa·s]
x1 = 0.1001	1552.35	944	1.012
x1 = 0.1992	1531.61	980	1.207
x1 = 0.3007	1512.21	1012	1.433
x1 = 0.4088	1492.99	1047	1.705
x1 = 0.4988	1478.09	1072	1.948
x1 = 0.5999	1462.1	1098	2.255
x1 = 0.699	1446.77	1121	2.571
x1 = 0.8988	1415.72	1155	3.25
x1 = 1	1399.18	1166	3.614

CCOC(=O)CCl [ethyl chloroethanoate] + ClC(Cl)Cl
[1]
Conditions	mass density [kg/m3]	speed of sound [m/s]	viscosity [mPa·s]
x1 = 0.0989	1429.89	990	0.617
x1 = 0.1945	1392.15	1014	0.687
x1 = 0.2954	1354.22	1038	0.759
x1 = 0.3905	1320.14	1062	0.806
x1 = 0.5048	1281.24	1091	0.852
x1 = 0.6012	1250.32	1115	0.9
x1 = 0.6875	1223.93	1137	0.943
x1 = 0.7658	1201.01	1159	0.989
x1 = 0.8992	1164.5	1198	1.114

CCOC(=O)CCl [ethyl chloroethanoate]
[2]
Conditions	mass density [kg/m3]	speed of sound [m/s]	viscosity [mPa·s]
–	1139.18	1227	1.275

CCOC(=O)C(Br)C(=O)OCC [diethyl bromomalonate]
[2]
Conditions	mass density [kg/m3]	speed of sound [m/s]
–	1399.18	1166

Conditions	viscosity [mPa·s]
[2], Capillary tube (Ostwald / Ubbelohde) method	3.614

CCOC(=O)CCl [ethyl chloroethanoate] + ClC(Cl)(Cl)Cl
[1]
Conditions	mass density [kg/m3]	speed of sound [m/s]	viscosity [mPa·s]
x1 = 0.095	1530.01	933	0.853
x1 = 0.1992	1481.59	964	0.862
x1 = 0.298	1436.61	994	0.862
x1 = 0.3972	1392.26	1025	0.87
x1 = 0.5	1347.02	1058	0.891
x1 = 0.5978	1304.82	1089	0.928
x1 = 0.6984	1262.23	1123	0.967
x1 = 0.8044	1218.14	1158	1.021
x1 = 0.8978	1180.11	1191	1.113
x1 = 1	1139.18	1227	1.275

ClC(Cl)(Cl)Cl [tetrachloromethane]
[2]
Conditions	mass density [kg/m3]	speed of sound [m/s]	viscosity [mPa·s]
–	1574.82	905	0.844
